Paper PMC6979384, “Characterization of the plant homeodomain (PHD) reader family for their histone tail interactions” (Epigenetics & Chromatin, 2020)
Blank lines part the entries; values can stand above or below the substance they belong to.

Key:
Assay in all cases: Histone peptide microarray
Type in all cases: binding, human
PHF23 = system: PHF23
In short: (§1)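 Recombinant GST-PHD protein at 0.5 μM; 293-member modified histone peptide array; signals averaged from four repeats ± SD.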

RAG2 = system: RAG2
In short: as §1

BAZ2B = system: BAZ2B
In short: as §1

KDM5A (3) = system: KDM5A (3)
In short: as §1

PHF8 = system: PHF8
In short: as §1

ING1 = system: ING1
In short: as §1

CHD5 (PCC) = system: CHD5 (PCC)
In short: as §1

PHF2 = system: PHF2
In short: as §1

KDM4C (TTP) = system: KDM4C (TTP)
In short: as §1

PHF13 = system: PHF13
In short: as §1

ING5 = system: ING5
In short: as §1

CHD4 (PPCC) = system: CHD4 (PPCC)
In short: as §1

KDM7A = system: KDM7A
In short: as §1

TRIM66 (PB) = system: TRIM66 (PB)
In short: as §1

MORC3 (CW) = system: MORC3 (CW)
In short: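 Each reader, produced as a GST fusion and purified, was tested at 0.5 μM on synthetic histone peptides (293 in total) carrying single or combinatorial marks. Intensities averaged over four replicates.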

MLL5 = system: MLL5
In short: as §1

ING4 = system: ING4
In short: as §1

KDM5B (1) = system: KDM5B (1)
In short: as §1

ING2 = system: ING2
In short: as §1

KDM5A (1) = system: KDM5A (1)
In short: as §1

DPF2 (PPC2W2) = system: DPF2 (PPC2W2)
In short: as §1

KDM5B (3) = system: KDM5B (3)
In short: as §1

SP140L = system: SP140L
In short: as §1

PHRF1 (RP) = system: PHRF1 (RP)
In short: as §1

AIRE (PP) = system: AIRE (PP)
In short: as §1

ING3 = system: ING3
In short: as §1

PHF21A = system: PHF21A
In short: as §1

DIDO1 = system: DIDO1
In short: as §1

CHD5 (PPCC) = system: CHD5 (PPCC)
In short: as §1

BPTF (PB) = system: BPTF (PB)
In short: as §1

TAF3 = system: TAF3
In short: as §1

[1] = histone peptide array, GST-tagged reader, arrays performed twice, n of 4
[2] = histone peptide array, GST-tagged reader, PPCC = Dual PHD + Dual Chromodomain, arrays performed twice, n of 4
[3] = histone peptide array, GST-tagged reader, PB = PHD + Bromodomain, arrays performed twice, n of 4

Substance: H4K5proK8proK12pro: H4 1-23
Array Heatmap value (peptide array signal) (PHF23; PHF23, sheet "Array Heatmap", each array performed twice, total n = 4): 0.5776 | Array Heatmap value (peptide array signal) (RAG2; RAG2, sheet "Array Heatmap", each array performed twice, total n = 4): 0.2779 | Array Heatmap value (peptide array signal) (BAZ2B; BAZ2B, sheet "Array Heatmap", each array performed twice, total n = 4): 0.5476 | Array Heatmap value (peptide array signal) (KDM5A (3); KDM5A (3), sheet "Array Heatmap", each array performed twice, total n = 4): 0.4569 | Array Heatmap value (peptide array signal) (PHF8; PHF8, sheet "Array Heatmap", each array performed twice, total n = 4): 0.41 | Array Heatmap value (peptide array signal) (ING1; ING1, sheet "Array Heatmap", each array performed twice, total n = 4): 0.5929 | Array Heatmap value (peptide array signal) (CHD5 (PCC); CHD5 (PCC), sheet "Array Heatmap", each array performed twice, total n = 4): 0.8593 | Array Heatmap value (peptide array signal) (PHF2; PHF2, sheet "Array Heatmap", each array performed twice, total n = 4): 0.5444 | Array Heatmap value (peptide array signal) (KDM4C (TTP); KDM4C (TTP), sheet "Array Heatmap", each array performed twice, total n = 4): 0.5585 | Array Heatmap value (peptide array signal) (PHF13; PHF13, sheet "Array Heatmap", each array performed twice, total n = 4): 0.7138 | Array Heatmap value (peptide array signal) (ING5; ING5, sheet "Array Heatmap", each array performed twice, total n = 4): 0.4117 | Array Heatmap value (peptide array signal) (CHD4 (PPCC); CHD4 (PPCC), sheet "Array Heatmap", each array performed twice, total n = 4): 0.656 | Array Heatmap value (peptide array signal) (KDM7A; KDM7A, sheet "Array Heatmap", each array performed twice, total n = 4): 0.3949 | Array Heatmap value (peptide array signal) (TRIM66 (PB); TRIM66 (PB), sheet "Array Heatmap", each array performed twice, total n = 4): 0.6547 | Array Heatmap value (peptide array signal) (MORC3 (CW); MORC3 (CW), sheet "Array Heatmap", each array performed twice, total n = 4): 0.3861 | Array Heatmap value (peptide array signal) (MLL5; MLL5, sheet "Array Heatmap", each array performed twice, total n = 4): 0.612 | Array Heatmap value (peptide array signal) (ING4; ING4, sheet "Array Heatmap", each array performed twice, total n = 4): 0.5361 | Array Heatmap value (peptide array signal) (KDM5B (1); KDM5B (1), sheet "Array Heatmap", each array performed twice, total n = 4): 0.629 | Array Heatmap value (peptide array signal) (ING2; ING2, sheet "Array Heatmap", each array performed twice, total n = 4): 0.6246 | Array Heatmap value (peptide array signal) (KDM5A (1); KDM5A (1), sheet "Array Heatmap", each array performed twice, total n = 4): 0.5265 | Array Heatmap value (peptide array signal) (DPF2 (PPC2W2); DPF2 (PPC2W2), sheet "Array Heatmap", each array performed twice, total n = 4): 0.725 | Array Heatmap value (peptide array signal) (KDM5B (3); KDM5B (3), sheet "Array Heatmap", each array performed twice, total n = 4): 0.4906 | Array Heatmap value (peptide array signal) (SP140L; SP140L, sheet "Array Heatmap", each array performed twice, total n = 4): 0.3966 | Array Heatmap value (peptide array signal) (PHRF1 (RP); PHRF1 (RP), sheet "Array Heatmap", each array performed twice, total n = 4): 0.4879 | Array Heatmap value (peptide array signal) (AIRE (PP); AIRE (PP), sheet "Array Heatmap", each array performed twice, total n = 4): 0.5223 | Array Heatmap value (peptide array signal) (ING3; ING3, sheet "Array Heatmap", each array performed twice, total n = 4): 0.5538 | Array Heatmap value (peptide array signal) (PHF21A; PHF21A, sheet "Array Heatmap", each array performed twice, total n = 4): 0.5432 | Array Heatmap value (peptide array signal) (DIDO1; DIDO1, sheet "Array Heatmap", each array performed twice, total n = 4): 0.7693 | Array Heatmap value (peptide array signal) (CHD5 (PPCC); CHD5 (PPCC), sheet "Array Heatmap", each array performed twice, total n = 4): 0.65 | Array Heatmap value (peptide array signal) (BPTF (PB); BPTF (PB), sheet "Array Heatmap", each array performed twice, total n = 4): 0.4022 | Array Heatmap value (peptide array signal) (TAF3; TAF3, sheet "Array Heatmap", each array performed twice, total n = 4): 0.2924

Substance: H4K8but (1-23): H4 1-23
Array Heatmap signal, PHF23 (PHF23; [1]): 0.5244 | Array Heatmap signal, RAG2 (RAG2; [1]): 0.2428 | Array Heatmap signal, BAZ2B (BAZ2B; [1]): 0.516 | Array Heatmap signal, KDM5A (3) (KDM5A (3); [1]): 0.4217 | Array Heatmap signal, PHF8 (PHF8; [1]): 0.3491 | Array Heatmap signal, ING1 (ING1; [1]): 0.5208 | Array Heatmap signal, CHD5 (PCC) (CHD5 (PCC); histone peptide array, GST-tagged reader, PCC = PHD + Dual Chromodomain, arrays performed twice, n of 4): 0.8434 | Array Heatmap signal, PHF2 (PHF2; [1]): 0.4448 | Array Heatmap signal, KDM4C (TTP) (KDM4C (TTP); histone peptide array, GST-tagged reader, TTP = Tandem Tudor domain + PHD, arrays performed twice, n of 4): 0.554 | Array Heatmap signal, PHF13 (PHF13; [1]): 0.6477 | Array Heatmap signal, ING5 (ING5; [1]): 0.3969 | Array Heatmap signal, CHD4 (PPCC) (CHD4 (PPCC); [2]): 0.5879 | Array Heatmap signal, KDM7A (KDM7A; [1]): 0.4551 | Array Heatmap signal, TRIM66 (PB) (TRIM66 (PB); [3]): 0.6276 | Array Heatmap signal, MORC3 (CW) (MORC3 (CW); histone peptide array, GST-tagged reader, CW = CW-type Zn-finger, arrays performed twice, n of 4): 0.3738 | Array Heatmap signal, MLL5 (MLL5; [1]): 0.5606 | Array Heatmap signal, ING4 (ING4; [1]): 0.503 | Array Heatmap signal, KDM5B (1) (KDM5B (1); [1]): 0.6708 | Array Heatmap signal, ING2 (ING2; [1]): 0.5968 | Array Heatmap signal, KDM5A (1) (KDM5A (1); [1]): 0.5298 | Array Heatmap signal, DPF2 (PPC2W2) (DPF2 (PPC2W2); histone peptide array, GST-tagged reader, PPC2W2 = Dual PHD + C2W2-type Zn-finger, arrays performed twice, n of 4): 0.6771 | Array Heatmap signal, KDM5B (3) (KDM5B (3); [1]): 0.4914 | Array Heatmap signal, SP140L (SP140L; [1]): 0.3902 | Array Heatmap signal, PHRF1 (RP) (PHRF1 (RP); [1]): 0.4442 | Array Heatmap signal, AIRE (PP) (AIRE (PP); [1]): 0.5833 | Array Heatmap signal, ING3 (ING3; [1]): 0.4842 | Array Heatmap signal, PHF21A (PHF21A; [1]): 0.5096 | Array Heatmap signal, DIDO1 (DIDO1; [1]): 0.6187 | Array Heatmap signal, CHD5 (PPCC) (CHD5 (PPCC); [2]): 0.6043 | Array Heatmap signal, BPTF (PB) (BPTF (PB); [3]): 0.3704 | Array Heatmap signal, TAF3 (TAF3; [1]): 0.3164

Array Heatmap value (peptide array binding signal) (PHF23; PHF23, GST-tagged, arrays performed twice, n of 4): 0.5427 | Array Heatmap value (peptide array binding signal) (RAG2; RAG2, GST-tagged, arrays performed twice, n of 4): 0.2588 | Array Heatmap value (peptide array binding signal) (BAZ2B; BAZ2B, GST-tagged, arrays performed twice, n of 4): 0.4726 | Array Heatmap value (peptide array binding signal) (KDM5A (3); KDM5A (3), GST-tagged, arrays performed twice, n of 4): 0.4616 | Array Heatmap value (peptide array binding signal) (PHF8; PHF8, GST-tagged, arrays performed twice, n of 4): 0.3718 | Array Heatmap value (peptide array binding signal) (ING1; ING1, GST-tagged, arrays performed twice, n of 4): 0.5733 | Array Heatmap value (peptide array binding signal) (CHD5 (PCC); CHD5 (PCC), GST-tagged, arrays performed twice, n of 4): 0.8139 | Array Heatmap value (peptide array binding signal) (PHF2; PHF2, GST-tagged, arrays performed twice, n of 4): 0.5963 | Array Heatmap value (peptide array binding signal) (KDM4C (TTP); KDM4C (TTP), GST-tagged, arrays performed twice, n of 4): 0.4883 | Array Heatmap value (peptide array binding signal) (PHF13; PHF13, GST-tagged, arrays performed twice, n of 4): 0.6242 | Array Heatmap value (peptide array binding signal) (ING5; ING5, GST-tagged, arrays performed twice, n of 4): 0.3641 | Array Heatmap value (peptide array binding signal) (CHD4 (PPCC); CHD4 (PPCC), GST-tagged, arrays performed twice, n of 4): 0.6125 | Array Heatmap value (peptide array binding signal) (KDM7A; KDM7A, GST-tagged, arrays performed twice, n of 4): 0.3413 | Array Heatmap value (peptide array binding signal) (TRIM66 (PB); TRIM66 (PB), GST-tagged, arrays performed twice, n of 4): 0.6142 | Array Heatmap value (peptide array binding signal) (MORC3 (CW); MORC3 (CW), GST-tagged, arrays performed twice, n of 4): 0.3765 | Array Heatmap value (peptide array binding signal) (MLL5; MLL5, GST-tagged, arrays performed twice, n of 4): 0.5584 | Array Heatmap value (peptide array binding signal) (ING4; ING4, GST-tagged, arrays performed twice, n of 4): 0.4749 | Array Heatmap value (peptide array binding signal) (KDM5B (1); KDM5B (1), GST-tagged, arrays performed twice, n of 4): 0.6396 | Array Heatmap value (peptide array binding signal) (ING2; ING2, GST-tagged, arrays performed twice, n of 4): 0.5951 | Array Heatmap value (peptide array binding signal) (KDM5A (1); KDM5A (1), GST-tagged, arrays performed twice, n of 4): 0.445 | Array Heatmap value (peptide array binding signal) (DPF2 (PPC2W2); DPF2 (PPC2W2), GST-tagged, arrays performed twice, n of 4): 0.7109 | Array Heatmap value (peptide array binding signal) (KDM5B (3); KDM5B (3), GST-tagged, arrays performed twice, n of 4): 0.4591 | Array Heatmap value (peptide array binding signal) (SP140L; SP140L, GST-tagged, arrays performed twice, n of 4): 0.3853 | Array Heatmap value (peptide array binding signal) (PHRF1 (RP); PHRF1 (RP), GST-tagged, arrays performed twice, n of 4): 0.4962 | Array Heatmap value (peptide array binding signal) (AIRE (PP); AIRE (PP), GST-tagged, arrays performed twice, n of 4): 0.4246 | Array Heatmap value (peptide array binding signal) (ING3; ING3, GST-tagged, arrays performed twice, n of 4): 0.514 | Array Heatmap value (peptide array binding signal) (PHF21A; PHF21A, GST-tagged, arrays performed twice, n of 4): 0.4915 | Array Heatmap value (peptide array binding signal) (DIDO1; DIDO1, GST-tagged, arrays performed twice, n of 4): 0.7218 | Array Heatmap value (peptide array binding signal) (CHD5 (PPCC); CHD5 (PPCC), GST-tagged, arrays performed twice, n of 4): 0.558 | Array Heatmap value (peptide array binding signal) (BPTF (PB); BPTF (PB), GST-tagged, arrays performed twice, n of 4): 0.3716 | Array Heatmap value (peptide array binding signal) (TAF3; TAF3, GST-tagged, arrays performed twice, n of 4): 0.2722
Substance: H4K8me1: H4 1-23 [Peptide H4K8me1]
